Source: patent US8901118B2, “Compounds and methods for kinase modulation, and indications therefor” (Plexxikon Inc., priority 2010, dated 2014)

Assays:
Flt-3 kinase = target: T1, Flt-3 kinase (Homo sapiens, UniProt P36888); assay: Flt-3 kinase biochemical activity assay (AlphaScreen); conditions: 100 μM ATP; read-out: Biochemical Inhibition IC50 Flt3
T1 sequence (P36888 27-993): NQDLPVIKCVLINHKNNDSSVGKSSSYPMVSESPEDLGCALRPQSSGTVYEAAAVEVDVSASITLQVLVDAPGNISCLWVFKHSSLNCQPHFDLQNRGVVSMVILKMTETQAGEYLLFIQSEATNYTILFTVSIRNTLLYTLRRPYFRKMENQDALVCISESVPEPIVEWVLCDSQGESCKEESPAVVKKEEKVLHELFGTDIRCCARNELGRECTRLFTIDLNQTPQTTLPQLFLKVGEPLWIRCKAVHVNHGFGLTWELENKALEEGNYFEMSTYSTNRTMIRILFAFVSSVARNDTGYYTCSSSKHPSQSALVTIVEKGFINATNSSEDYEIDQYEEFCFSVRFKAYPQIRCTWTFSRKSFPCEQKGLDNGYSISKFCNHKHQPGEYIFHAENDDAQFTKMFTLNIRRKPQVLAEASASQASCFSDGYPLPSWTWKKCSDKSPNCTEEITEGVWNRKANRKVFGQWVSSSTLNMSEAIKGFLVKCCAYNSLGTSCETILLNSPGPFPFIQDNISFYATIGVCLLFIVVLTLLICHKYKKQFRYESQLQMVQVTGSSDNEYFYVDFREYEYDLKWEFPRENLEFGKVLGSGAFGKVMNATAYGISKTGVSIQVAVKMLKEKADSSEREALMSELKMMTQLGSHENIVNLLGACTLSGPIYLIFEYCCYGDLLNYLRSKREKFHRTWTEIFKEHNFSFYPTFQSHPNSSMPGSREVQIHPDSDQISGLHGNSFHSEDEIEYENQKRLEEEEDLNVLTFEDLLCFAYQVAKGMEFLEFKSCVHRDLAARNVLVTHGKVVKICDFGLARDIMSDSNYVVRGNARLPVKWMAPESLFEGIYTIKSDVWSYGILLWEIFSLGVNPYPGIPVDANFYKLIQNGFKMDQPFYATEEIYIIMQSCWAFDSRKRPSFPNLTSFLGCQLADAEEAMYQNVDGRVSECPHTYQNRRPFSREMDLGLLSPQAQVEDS
Protocol: In one assay the biochemical activity IC50 values are determined with respect to inhibition of Flt-3 kinase activity, where inhibition of phosphorylation of a peptide substrate is measured as a function of compound concentration. Compounds to be tested, dissolved in DMSO (1 μL), are added to a white 384-well plate (Costar #3705). Working stocks of Flt-3 kinase (Invitrogen), biotin-(E4Y)10 substrate (Upstate Biotech, Cat#12-440), and ATP (Sigma, Cat#A-3377) are prepared in 25 mM Hepes pH 7.5, 5 mM MgCl2, 5 mM MnCl2, 1 mM DTT, and 0.01% Tween-20. All components are added to the 384-well plate for a final concentration of 1 ng/well Flt-3, 30 nM biotin-(E4Y)10 and 100 μM ATP in a volume of 20 μL. Each sample is at 5% DMSO. The plate is then incubated for 1 hour at room temperature. Just before use, working stocks of donor and acceptor beads from the AlphaScreen PY20 Detection Kit (PerkinElmer, Cat#676601M) are prepared in 25 mM Hepes pH 7.5, pH 7.4, 100 mM EDTA. 0.3% BSA. To stop the reaction, the plate is uncovered in the dark and 5 μL of Donor Beads solution (Streptavidin beads) is added to each well. The plate is incubated at room temperature for 20 minutes. Five microliters of Acceptor Beads solution (PY20 coated beads) are then added to each well. The final concentration of each bead is 10 μg/mL. The plates are incubated at room temperature for 60 minutes. Fluorescence signal is recorded on the Envision reader. Phosphorylated substrate results in binding of the PY20 antibody and association of the donor and acceptor beads such that signal correlates with kinase activity. The signal vs. compound concentration is used to determine the IC50.

TrkA kinase = TrkA kinase (Homo sapiens, UniProt P04629); assay: TrkA kinase biochemical activity assay (AlphaScreen); conditions: 100 μM ATP; read-out: Biochemical Inhibition IC50 TrkA
TrkA kinase, sequence (P04629 33-796): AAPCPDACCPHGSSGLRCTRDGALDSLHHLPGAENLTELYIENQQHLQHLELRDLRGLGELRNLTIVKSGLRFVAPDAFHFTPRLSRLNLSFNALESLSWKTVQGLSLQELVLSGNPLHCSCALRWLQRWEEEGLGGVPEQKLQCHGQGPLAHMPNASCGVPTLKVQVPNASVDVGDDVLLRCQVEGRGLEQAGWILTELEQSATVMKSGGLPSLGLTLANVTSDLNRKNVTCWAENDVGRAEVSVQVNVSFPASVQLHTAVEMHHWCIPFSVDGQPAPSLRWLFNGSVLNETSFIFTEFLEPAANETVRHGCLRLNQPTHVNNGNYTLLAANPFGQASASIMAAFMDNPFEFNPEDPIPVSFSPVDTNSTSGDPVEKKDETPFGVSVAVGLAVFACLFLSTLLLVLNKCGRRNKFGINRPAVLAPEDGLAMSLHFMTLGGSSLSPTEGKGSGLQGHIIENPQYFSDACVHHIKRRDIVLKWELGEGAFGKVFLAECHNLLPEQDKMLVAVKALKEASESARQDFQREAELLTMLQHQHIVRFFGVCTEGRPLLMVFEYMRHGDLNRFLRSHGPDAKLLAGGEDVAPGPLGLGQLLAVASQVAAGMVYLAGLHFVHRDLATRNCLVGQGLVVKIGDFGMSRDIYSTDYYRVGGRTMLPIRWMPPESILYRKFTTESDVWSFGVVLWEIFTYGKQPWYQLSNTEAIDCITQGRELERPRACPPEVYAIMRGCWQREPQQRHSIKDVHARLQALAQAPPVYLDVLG
In short: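 Recombinant TrkA with 30 nM biotin-(E4Y)10 and 100 μM ATP in 25 mM Hepes pH 7.5, 10 mM MnCl2, 5% DMSO, 40 min at room temperature. Phosphorylation read by AlphaScreen (streptavidin donor, PY20 acceptor beads); IC50 from signal vs compound concentration. TrkC run similarly.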

Structure (SMILES): COc1ccc(Nc2ccc(C(=O)c3c[nH]c4ncnc(C5CC5)c34)c(F)n2)cn1 [Compound P-4022, (4-cyclopropyl-7H-pyrrolo[2,3-d]pyrimidin-5-yl)-[2-fluoro-6-(6-methoxy-pyridin-3-ylamino)-pyridin-3-yl]-methanone]
- IC50 (Flt-3 kinase): < 100 nM
- IC50 (TrkA kinase): < 10 nM

Structure (SMILES): CCc1ccc(Nc2ccc(Cc3c[nH]c4ncnc(OC)c34)c(F)n2)cn1 [Compound P-4007, (6-Ethyl-pyridin-3-yl)-[6-fluoro-5-(4-methoxy-7H-pyrrolo[2,3-d]pyrimidin-5-ylmethyl)-pyridin-2-yl]-amine]
- IC50 (Flt-3 kinase): < 100 nM
- IC50 (TrkA kinase): < 10 nM

Structure (SMILES): CCOc1ccc(Nc2ccc(Cc3c[nH]c4ncnc(C)c34)c(F)n2)cn1 [Compound P-4006, (6-Ethoxy-pyridin-3-yl)-[6-fluoro-5-(4-methyl-7H-pyrrolo[2,3-d]pyrimidin-5-ylmethyl)-pyridin-2-yl]-amine]
- IC50 (Flt-3 kinase): < 100 nM
- IC50 (TrkA kinase): < 100 nM

Structure (SMILES): CCOc1ccc(Nc2ccc(Cc3c[nH]c4ncnc(OC)c34)c(F)n2)cn1 [Compound P-4005, (6-Ethoxy-pyridin-3-yl)-[6-fluoro-5-(4-methoxy-7H-pyrrolo[2,3-d]pyrimidin-5-ylmethyl)-pyridin-2-yl]-amine]
- IC50 (Flt-3 kinase): < 100 nM
- IC50 (TrkA kinase): < 100 nM

Structure (SMILES): Cc1cnc2[nH]cc(Cc3cnc(Nc4ccc(C(F)(F)F)nc4)nc3)c2c1 [Compound P-3018, [5-(5-Methyl-1H-pyrrolo[2,3-b]pyridin-3-ylmethyl)-pyrimidin-2-yl]-(6-trifluoromethyl-pyridin-3-yl)-amine]
- IC50 (Flt-3 kinase): < 10 nM
- IC50 (TrkA kinase): < 1000 nM

Structure (SMILES): CCn1cc(Nc2ccc(Cc3c[nH]c4ncnc(OC)c34)c(F)n2)cn1 [Compound P-4011, (1-Ethyl-1H-pyrazol-4-yl)-[6-fluoro-5-(4-methoxy-7H-pyrrolo[2,3-d]pyrimidin-5-ylmethyl)-pyridin-2-yl]-amine]
- IC50 (Flt-3 kinase): < 1000 nM
- IC50 (TrkA kinase): < 1000 nM

Structure (SMILES): CCOc1ncnc2[nH]cc(Cc3ccc(Nc4cnn(CC)c4)nc3F)c12 [Compound P-4012, [5-(4-Ethoxy-7H-pyrrolo[2,3-d]pyrimidin-5-ylmethyl)-6-fluoro-pyridin-2-yl]-(1-ethyl-1H-pyrazol-4-yl)-amine]
- IC50 (Flt-3 kinase): < 1000 nM
- IC50 (TrkA kinase): < 100 nM

Structure (SMILES): CCOc1ccc(Nc2ccc(C(=O)c3c[nH]c4ncnc(C5CC5)c34)c(F)n2)cn1 [Compound P-4027, (4-Cyclopropyl-7H-pyrrolo[2,3-d]pyrimidin-5-yl)-[6-(6-ethoxy-pyridin-3-ylamino)-2-fluoro-pyridin-3-yl]-methanone]
- IC50 (Flt-3 kinase): < 10 nM
- IC50 (TrkA kinase): < 10 nM

Structure (SMILES): Cc1cnc2[nH]cc(C(=O)c3ccc(Nc4ccc(C)nc4)nc3F)c2c1 [Compound P-3043, [2-Fluoro-6-(6-methyl-pyridin-3-ylamino)-pyridin-3-yl]-(5-methyl-1H-pyrrolo[2,3-b]pyridin-3-yl)-methanone]
- IC50 (Flt-3 kinase): < 1000 nM
- IC50 (TrkA kinase): < 100 nM

Structure (SMILES): COc1ccc(Nc2ccc(Cc3c[nH]c4ncnc(C5CC5)c34)c(F)n2)cn1 [Compound P-4023, [5-(4-cyclopropyl-7H-pyrrolo[2,3-d]pyrimidin-5-ylmethyl)-6-fluoro-pyridin-2-yl]-(6-methoxy-pyridin-3-yl)-amine]
- IC50 (Flt-3 kinase): < 1000 nM
- IC50 (TrkA kinase): < 100 nM

Structure (SMILES): CCn1cc(Nc2ccc(Cc3c[nH]c4ncnc(C)c34)c(F)n2)cn1 [Compound P-4013, (1-Ethyl-1H-pyrazol-4-yl)-[6-fluoro-5-(4-methyl-7H-pyrrolo[2,3-d]pyrimidin-5-ylmethyl)-pyridin-2-yl]-amine]
- IC50 (Flt-3 kinase): > 1000 nM
- IC50 (TrkA kinase): < 1000 nM

Structure (SMILES): CCOc1ccc(Nc2ccc(C(=O)c3c[nH]c4ncnc(C)c34)c(F)n2)cn1 [Compound P-4032, [6-(6-Ethoxy-pyridin-3-ylamino)-2-fluoro-pyridin-3-yl]-(4-methyl-7H-pyrrolo[2,3-d]pyrimidin-5-yl)-methanone]
- IC50 (Flt-3 kinase): < 100 nM
- IC50 (TrkA kinase): < 100 nM

Structure (SMILES): COCCOc1ncnc2[nH]cc(Cc3ccc(Nc4ccc(OC)nc4)nc3F)c12 [Compound P-4019, {6-Fluoro-5-[4-(2-methoxy-ethoxy)-7H-pyrrolo[2,3-d]pyrimidin-5-ylmethyl]-pyridin-2-yl}-(6-methoxy-pyridin-3-yl)-amine]
- IC50 (Flt-3 kinase): < 100 nM
- IC50 (TrkA kinase): < 100 nM

Structure (SMILES): COc1ncnc2[nH]cc(Cc3ccc(Nc4ccc(Cl)nc4)nc3F)c12 [Compound P-4003, (6-Chloro-pyridin-3-yl)-[6-fluoro-5-(4-methoxy-7H-pyrrolo[2,3-d]pyrimidin-5-ylmethyl)-pyridin-2-yl]-amine]
- IC50 (Flt-3 kinase): < 1000 nM
- IC50 (TrkA kinase): < 1000 nM

Structure (SMILES): CCOc1ncnc2[nH]cc(Cc3ccc(Nc4ccc(C)nc4)nc3F)c12 [Compound P-4017, [5-(4-Ethoxy-7H-pyrrolo[2,3-d]pyrimidin-5-ylmethyl)-6-fluoro-pyridin-2-yl]-(6-methyl-pyridin-3-yl)-amine]
- IC50 (Flt-3 kinase): < 100 nM
- IC50 (TrkA kinase): < 100 nM

Structure (SMILES): CCOc1ccc(Nc2ncc(Cc3c[nH]c4ncc(C)cc34)cn2)cc1 [Compound P-3026, (4-Ethoxy-phenyl)-[5-(5-methyl-1H-pyrrolo[2,3-b]pyridin-3-ylmethyl)-pyrimidin-2-yl]-amine]
- IC50 (Flt-3 kinase): < 100 nM
- IC50 (TrkA kinase): > 1000 nM

Structure (SMILES): COc1ccc(Nc2ncc(Cc3c[nH]c4ncc(C)cc34)cn2)cn1 [Compound P-3020, (6-Methoxy-pyridin-3-yl)-[5-(5-methyl-1H-pyrrolo[2,3-b]pyridin-3-ylmethyl)-pyrimidin-2-yl]-amine]
- IC50 (Flt-3 kinase): < 10 nM
- IC50 (TrkA kinase): < 100 nM

Structure (SMILES): Cc1ccc(Nc2ccc(C(=O)c3c[nH]c4ncc(Cl)cc34)c(F)n2)cn1 [Compound P-3044, (5-Chloro-1H-pyrrolo[2,3-b]pyridin-3-yl)-[2-fluoro-6-(6-methyl-pyridin-3-ylamino)-pyridin-3-yl]-methanone]
- IC50 (Flt-3 kinase): < 1000 nM
- IC50 (TrkA kinase): < 100 nM

Structure (SMILES): CCOc1ccc(Nc2ccc(C(=O)c3c[nH]c4ncnc(OC)c34)c(F)n2)cn1 [Compound P-4024, [6-(6-Ethoxy-pyridin-3-ylamino)-2-fluoro-pyridin-3-yl]-(4-methoxy-7H-pyrrolo[2,3-d]pyrimidin-5-yl)-methanone]
- IC50 (Flt-3 kinase): < 100 nM
- IC50 (TrkA kinase): < 100 nM

Structure (SMILES): CCOc1ccc(Nc2ccc(Cc3c[nH]c4ncnc(OCCOC)c34)c(F)n2)cn1 [Compound P-4008, (6-Ethoxy-pyridin-3-yl)-{6-fluoro-5-[4-(2-methoxy-ethoxy)-7H-pyrrolo[2,3-d]pyrimidin-5-ylmethyl]-pyridin-2-yl}-amine]
- IC50 (Flt-3 kinase): < 100 nM
- IC50 (TrkA kinase): < 10 nM

Structure (SMILES): CCn1cc(Nc2ncc(Cc3c[nH]c4ncc(C)cc34)cn2)cn1 [Compound P-3036, (1-Ethyl-1H-pyrazol-4-yl)-[5-(5-methyl-1H-pyrrolo[2,3-b]pyridin-3-ylmethyl)-pyrimidin-2-yl]-amine]
- IC50 (Flt-3 kinase): < 100 nM
- IC50 (TrkA kinase): < 1000 nM

Structure (SMILES): CCOc1ncnc2[nH]cc(Cc3ccc(Nc4ccc(OC)nc4)nc3F)c12 [Compound P-4018, [5-(4-Ethoxy-7H-pyrrolo[2,3-d]pyrimidin-5-ylmethyl)-6-fluoro-pyridin-2-yl]-(6-methoxy-pyridin-3-yl)-amine]
- IC50 (Flt-3 kinase): < 100 nM
- IC50 (TrkA kinase): < 100 nM

Structure (SMILES): CCc1ccc(Nc2ccc(Cc3c[nH]c4ncnc(C)c34)c(F)n2)cn1 [Compound P-4009, (6-Ethyl-pyridin-3-yl)-[6-fluoro-5-(4-methyl-7H-pyrrolo[2,3-d]pyrimidin-5-ylmethyl)-pyridin-2-yl]-amine]
- IC50 (Flt-3 kinase): < 100 nM
- IC50 (TrkA kinase): < 10 nM
